From patent US20260317324A1, “BIFUNCTIONAL COMPOUNDS FOR DEGRADING BRAF VIA UBIQUITIN PROTEOSOME PATHWAY” (Nurix Therapeutics, Inc., priority 2023, published 2026)

What was measured:
Format in all cases: cell-based
BRAF D594G = target: T1, BRAF D594G (Homo sapiens, UniProt P15056, D594G); test: BRAF HiBiT degradation assay, C-terminal HiBiT-tagged BRAF D594G overexpressed in HCT-116 BRAF−/− cells (clone 63), Nano-Glo HiBiT Lytic assay; conditions: BRAF D594G; for DC50: DC50 at 50%: fitted conc. at Y=50; for Dmax: HCT-116, percentage protein degraded at maximal compound effect relative to DMSO
T1 construct: Horizon Discovery (HCT-116 BRAF−/− cells); host or cells: HCT-116 BRAF−/− cells, clone 63, lentiviral transduction
T1 sequence (P15056 whole entry D594G): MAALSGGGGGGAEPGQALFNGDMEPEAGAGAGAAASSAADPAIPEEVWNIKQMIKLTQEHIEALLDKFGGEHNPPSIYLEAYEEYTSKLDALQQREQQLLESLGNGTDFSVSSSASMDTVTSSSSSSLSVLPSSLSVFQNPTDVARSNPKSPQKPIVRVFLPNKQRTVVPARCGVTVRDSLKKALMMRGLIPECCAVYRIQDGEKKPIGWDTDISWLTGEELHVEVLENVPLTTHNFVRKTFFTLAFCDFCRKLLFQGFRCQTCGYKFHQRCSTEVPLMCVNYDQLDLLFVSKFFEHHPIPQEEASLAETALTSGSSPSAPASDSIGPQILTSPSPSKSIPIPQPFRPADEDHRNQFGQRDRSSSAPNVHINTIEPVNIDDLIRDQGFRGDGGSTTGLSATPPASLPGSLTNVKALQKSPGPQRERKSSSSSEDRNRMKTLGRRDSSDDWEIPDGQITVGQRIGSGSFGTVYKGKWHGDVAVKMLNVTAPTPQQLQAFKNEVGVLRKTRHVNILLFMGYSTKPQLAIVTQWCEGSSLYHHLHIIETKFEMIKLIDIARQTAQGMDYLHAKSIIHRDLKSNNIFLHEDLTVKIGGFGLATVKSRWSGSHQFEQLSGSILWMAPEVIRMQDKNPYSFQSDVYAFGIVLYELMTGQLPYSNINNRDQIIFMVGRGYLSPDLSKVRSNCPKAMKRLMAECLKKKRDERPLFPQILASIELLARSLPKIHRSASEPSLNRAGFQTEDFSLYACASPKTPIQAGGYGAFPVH
In short: (§1)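 First, the stable HiBiT-tagged cells were plated and incubated for 24 h. Next, compound was added in duplicate as an 11-point series with a 1 μM top concentration. Lytic detection followed, with DMSO-treated parental cells used for background. Finally, DC50 and Obs. Dmax relative to DMSO were derived from the % protein remaining curves.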

BRAF G466V = target: T2, BRAF G466V (Homo sapiens, UniProt P15056, G466V); test: BRAF HiBiT degradation assay, C-terminal HiBiT-tagged BRAF G466V overexpressed in HCT-116 BRAF−/− cells (clone 8), Nano-Glo HiBiT Lytic assay; conditions: BRAF G466V; for DC50: DC50 at 50%: fitted conc. at Y=50; for Dmax: HCT-116, percentage protein degraded at maximal compound effect relative to DMSO
T2 construct: Horizon Discovery (HCT-116 BRAF−/− cells); host or cells: HCT-116 BRAF−/− cells, clone 8, lentiviral transduction
T2 sequence (P15056 whole entry G466V): as the sequence (P15056 whole entry D594G) above, with G466V, G594D counted along it
In short: as §1

BRAF G469A = target: T3, BRAF G469A (Homo sapiens, UniProt P15056, G469A); test: BRAF HiBiT degradation assay, C-terminal HiBiT-tagged BRAF G469A overexpressed in HCT-116 BRAF−/− cells (clone 34), Nano-Glo HiBiT Lytic assay; conditions: Class 2, BRAF G469A; for DC50: DC50 at 50%: fitted conc. at Y=50; for Dmax: HCT-116, percentage protein degraded at maximal compound effect relative to DMSO
T3 construct: Horizon Discovery (HCT-116 BRAF−/− cells); host or cells: HCT-116 BRAF−/− cells, clone 34, lentiviral transduction
T3 sequence (P15056 whole entry G469A): as the sequence (P15056 whole entry D594G) above, with G469A, G594D counted along it
In short: as §1

BRAF V600E = target: T4, BRAF V600E (Homo sapiens, UniProt P15056, V600E); test: BRAF HiBiT degradation assay, C-terminal HiBiT-tagged BRAF V600E A375 cells (clone 1F10), Nano-Glo HiBiT Lytic assay; conditions: A375 (BRAF V600E); for DC50: DC50 at 50%: fitted conc. at Y=50; for Dmax: A-375, percentage protein degraded at maximal compound effect relative to DMSO
T4 construct: endogenous C-terminal HiBiT fusion tag on BRAF V600E allele; endogenous in cells; host or cells: A375 clone 1F10 (CRISPR-Cas9 knock-in of the HiBiT tag; parental A375 from ATCC)
T4 sequence (P15056 whole entry V600E, the tested form may be a part): as the sequence (P15056 whole entry D594G) above, with G594D, V600E counted along it
In short: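 Degradation is measured as loss of HiBiT signal from BRAF V600E tagged at its native locus in A375 cells. Doses span 1 μM to 0.01 nM in half-log steps, in duplicate. Percent remaining is calculated against DMSO controls after subtracting untagged A375 background, and curve fitting yields DC50 and observed Dmax.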

Compound | DC50 (BRAF D594G) | Dmax (BRAF D594G) | DC50 (BRAF G466V) | Dmax (BRAF G466V) | DC50 (BRAF G469A) | Dmax (BRAF G469A) | DC50 (BRAF V600E) | Dmax (BRAF V600E)
CCCS(=O)(=O)Nc1cccc(-c2nc(-c3ccc(N4CCN(CC5CCN(c6ccc(C7CCC(=O)NC7=O)cn6)CC5)CC4)cc3)sc2-c2ccnc(N)n2)c1F (racemic) [Compound 187, Rac-N-{3-[5-(2-aminopyrimidin-4-yl)-2-(4-{4-[(1-{5-[(3R)-2,6-dioxopiperidin-3-yl]pyridin-2-yl}piperidin-4-yl)methyl]piperazin-1-yl}phenyl)-1,3-thiazol-4-yl]-2-fluorophenyl}propane-1-sulfonamide] | < 10 nM | 30 to 70% | 10 to 50 nM | 30 to 70% | 10 to 50 nM | 30 to 70% | < 10 nM | > 70%
CCCS(=O)(=O)Nc1cccc(-c2nc(C3CCN(C(=O)C4CCN(CC5CCN(c6cccc7c6n(C)c(=O)n7C6CCC(=O)NC6=O)CC5)CC4)CC3)sc2-c2ccnc(N)n2)c1F (racemic) [Compound 195, Rac-N-{3-[5-(2-aminopyrimidin-4-yl)-2-(1-{1-[(1-{1-[(3R)-2,6-dioxopiperidin-3-yl]-3-methyl-2-oxo-2,3-dihydro-1H-1,3-benzodiazol-4-yl}piperidin-4-yl)methyl]piperidine-4-carbonyl}piperidin-4-yl)-1,3-thiazol-4-yl]-2-fluorophenyl}propane-1-sulfonamide] | < 10 nM | 30 to 70% | < 10 nM | 30 to 70% | < 10 nM | 30 to 70% | < 10 nM | > 70%
CCCS(=O)(=O)Nc1cccc(-c2nc(CCC3CCN(C(=O)C4CCN(C(=O)C5CCN(c6ccc(C7CCC(=O)NC7=O)cn6)CC5)CC4)CC3)sc2-c2ccnc(N)n2)c1F (racemic) [Compound 205, Rac-N-{3-[5-(2-aminopyrimidin-4-yl)-2-(2-{1-[1-(1-{5-[(3R)-2,6-dioxopiperidin-3-yl]pyridin-2-yl}piperidine-4-carbonyl)piperidine-4-carbonyl]piperidin-4-yl}ethyl)-1,3-thiazol-4-yl]-2-fluorophenyl}propane-1-sulfonamide] | > 500 nM | 30 to 70% | > 500 nM | 30 to 70% | > 500 nM | 30 to 70% | < 10 nM | > 70%
CCCS(=O)(=O)Nc1cccc(-c2nc(-c3ccc(C4CCN(C(=O)CC5CCN(c6ccc(C7CCC(=O)NC7=O)cn6)CC5)CC4)cc3)sc2-c2ccnc(N)n2)c1F (racemic) [Compound 207, Rac-N-{3-[5-(2-aminopyrimidin-4-yl)-2-(4-{1-[2-(1-{5-[(3R)-2,6-dioxopiperidin-3-yl]pyridin-2-yl}piperidin-4-yl)acetyl]piperidin-4-yl}phenyl)-1,3-thiazol-4-yl]-2-fluorophenyl}propane-1-sulfonamide] | > 500 nM | 30 to 70% | > 500 nM | 30 to 70% | > 500 nM | 30 to 70% | 10 to 50 nM | > 70%
CCCS(=O)(=O)Nc1cccc(-c2nc(-c3ccc(C4CCN(CC5CCN(c6ccc(C7CCC(=O)NC7=O)cn6)CC5)CC4)cc3)sc2-c2ccnc(N)n2)c1F (racemic) [Compound 208, Rac-N-{3-[5-(2-aminopyrimidin-4-yl)-2-(4-{1-[(1-{5-[(3R)-2,6-dioxopiperidin-3-yl]pyridin-2-yl}piperidin-4-yl)methyl]piperidin-4-yl}phenyl)-1,3-thiazol-4-yl]-2-fluorophenyl}propane-1-sulfonamide] | > 500 nM | 30 to 70% | > 500 nM | 30 to 70% | > 500 nM | 30 to 70% | 10 to 50 nM | > 70%

Results, then the compound that gave them:

DC50 (BRAF D594G) | Dmax (BRAF D594G) | DC50 (BRAF G466V) | Dmax (BRAF G466V) | DC50 (BRAF G469A) | Dmax (BRAF G469A) | DC50 (BRAF V600E) | Dmax (BRAF V600E) | Compound
< 10 nM | 30 to 70% | 10 to 50 nM | 30 to 70% | > 500 nM | 30 to 70% | < 10 nM | > 70% | CCCS(=O)(=O)Nc1cccc(-c2nc(C3CCN(C(=O)C4CCN(C(=O)C5(C)CCN(c6ccc(C7CCC(=O)NC7=O)cn6)CC5)CC4)CC3)sc2-c2ccnc(N)n2)c1F (racemic) [Compound 193, Rac-N-{3-[5-(2-aminopyrimidin-4-yl)-2-{1-[1-(1-{5-[(3R)-2,6-dioxopiperidin-3-yl]pyridin-2-yl}-4-methylpiperidine-4-carbonyl)piperidine-4-carbonyl]piperidin-4-yl}-1,3-thiazol-4-yl]-2-fluorophenyl}propane-1-sulfonamide]
> 500 nM | 30 to 70% | > 500 nM | 30 to 70% | > 500 nM | < 30% | < 10 nM | > 70% | CCCS(=O)(=O)Nc1cccc(-c2nc(C3CCN(C(=O)C4(C)CCN(C(=O)CC5CCN(c6ccc(C7CCC(=O)NC7=O)cn6)CC5)CC4)CC3)sc2-c2ccnc(N)n2)c1F (racemic) [Compound 194, Rac-N-{3-[5-(2-aminopyrimidin-4-yl)-2-(1-{1-[2-(1-{5-[(3R)-2,6-dioxopiperidin-3-yl]pyridin-2-yl}piperidin-4-yl)acetyl]-4-methylpiperidine-4-carbonyl}piperidin-4-yl)-1,3-thiazol-4-yl]-2-fluorophenyl}propane-1-sulfonamide]
< 10 nM | 30 to 70% | < 10 nM | 30 to 70% | 10 to 50 nM | 30 to 70% | < 10 nM | > 70% | CCCS(=O)(=O)Nc1cccc(-c2nc(C3CCN(C(=O)C4(C)CCN(C(=O)C5CCN(c6ccc(C7CCC(=O)NC7=O)cn6)CC5)CC4)CC3)sc2-c2ccnc(N)n2)c1F (racemic) [Compound 197, Rac-N-{3-[5-(2-aminopyrimidin-4-yl)-2-{1-[1-(1-{5-[(3R)-2,6-dioxopiperidin-3-yl]pyridin-2-yl}piperidine-4-carbonyl)-4-methylpiperidine-4-carbonyl]piperidin-4-yl}-1,3-thiazol-4-yl]-2-fluorophenyl}propane-1-sulfonamide]
< 10 nM | 30 to 70% | > 500 nM | 30 to 70% | > 500 nM | 30 to 70% | < 10 nM | > 70% | CCCS(=O)(=O)Nc1cccc(-c2nc(C3CCN(C(=O)C4CCN(C(=O)C5CCN(c6ccc(C7CCC(=O)NC7=O)cn6)CC5)CC4)CC3)sc2-c2ccnc(NC3CC3)n2)c1F (racemic) [Compound 198, Rac-N-(3-{5-[2-(cyclopropylamino)pyrimidin-4-yl]-2-{1-[1-(1-{5-[(3R)-2,6-dioxopiperidin-3-yl]pyridin-2-yl}piperidine-4-carbonyl)piperidine-4-carbonyl]piperidin-4-yl}-1,3-thiazol-4-yl}-2-fluorophenyl)propane-1-sulfonamide]
< 10 nM | 30 to 70% | < 10 nM | > 70% | > 500 nM | 30 to 70% | < 10 nM | > 70% | CCCS(=O)(=O)Nc1cccc(-c2nc(C3CCN(C(=O)C4CCN(C(=O)CC5CCN(c6ccc(C7CCC(=O)NC7=O)cn6)CC5)CC4)CC3)sc2-c2ccnc(N)n2)c1F (racemic) [Compound 203, Rac-N-{3-[5-(2-aminopyrimidin-4-yl)-2-(1-{1-[2-(1-{5-[(3R)-2,6-dioxopiperidin-3-yl]pyridin-2-yl}piperidin-4-yl)acetyl]piperidine-4-carbonyl}piperidin-4-yl)-1,3-thiazol-4-yl]-2-fluorophenyl}propane-1-sulfonamide]
< 10 nM | 30 to 70% | 10 to 50 nM | 30 to 70% | > 500 nM | 30 to 70% | < 10 nM | > 70% | CCCS(=O)(=O)Nc1cccc(-c2nc(C3CCN(C(=O)C4CCN(C(=O)C5CCN(c6ccc(C7CCC(=O)NC7=O)cn6)CC5)CC4)CC3)sc2-c2ccnc(NC(C)C)n2)c1F (racemic) [Compound 206, Rac-N-[3-(2-{1-[1-(1-{5-[(3R)-2,6-dioxopiperidin-3-yl]pyridin-2-yl}piperidine-4-carbonyl)piperidine-4-carbonyl]piperidin-4-yl}-5-{2-[(propan-2-yl)amino]pyrimidin-4-yl}-1,3-thiazol-4-yl)-2-fluorophenyl]propane-1-sulfonamide]
